Patent EP1479388A1, “Ready to use gemcitabin solution concentrates” (STADA ARZNEIMITTEL AG, priority 2003, dated 2004)
In brackets after ≈: the same amount, converted by molar mass. Structures can show the parent of a compound that is named as a salt. Where two headings read alike, the source gives them in different places.

What was measured:
[1] = Saturation concentration of gemcitabine in aqueous-ethanolic solutions, HPLC (Beispiel 3); type: physicochemical; details: interpolation (Polynom 6. Grades), ca. 66 Vol.% Ethanolanteil, pH 10 +/-0,5
Text: Um die Sättigungskonzentration von Gemcitabin in wässrig-ethanolischeh Lösungen zu ermitteln, wurden Gemcitabin-Lösungen mit verschiedenen Volumenanteilen an Ethanol hergestellt und analysiert.
Hierzu wurde Gemcitabinhydrochlorid im Ansatzbehälter vorgelegt, mit einer stöchiometrischen Menge an wässrig gelöstem Alkalisierungsmittel (1 N Natronlauge) versetzt, anschließend mit jeweils 80 % der in Vortests ermittelten erforderlichen Mengen an Wasser für Injektionszwecke als auch mit jeweils erforderlichen Mengen an Ethanol versetzt.
Die im Ansatz enthaltenen Bestandteile wurden anschließend unter 6-stündigem Rühren bei Raumtemperatur (19-23 °C) derart gelöst, dass ein ungelöster Bodensatz an Gemcitabinhydrochlorid im Ansatzbehälter verblieb. Der pH-Wert des Ansatzes wurde potentiometrisch bestimmt und erforderlichenfalls mit 1 N Natronlauge bzw. 1 N Salzsäure auf einen pH-Wert von 10 eingestellt, um mit diesem pH-Wert eine vollständige Umsetzung des Gemcitabinhydrochlorids zur gelösten Gemcitabinbase zu erzielen.
Der Ansatz wurde 24 Stunden bei 19-23 °C gelagert. Der pH-Wert wurde anschließend kontrolliert und nur solche klaren Überstände der Ansätze weiterverarbeitet, deren pH-Werte 10 +/- 0,5 betrugen. Diese wurden dann partikelfrei filtriert und der Gehalt an Gemcitabin per HPLC bestimmt.

[2] = Maximum solubility in 66 Vol.-% ethanol after dissolving at 35-45 °C and cooling, HPLC (Beispiel 4); type: physicochemical; details: dissolved at 35-45 °C 6 h, cooled, 24 h at 19-23 °C
Method: Die maximale Löslichkeit von Gemcitabinhydrochlorid wurde unter weiterer Verwendung von 1 N Natronlauge, Wasser für Injektionszwecke und absolutem Ethanol, in als hierfür optimal erkanntem 66 Vol.-%-igem Anteil bei gesteigerten Lösungstemperaturen (35-45 °C, 6 Stunden Rühren) und anschließendem Abkühlen auf Raumtemperatur (19-23 °C) und 24-stündiger Lagerung bei 19-23 °C ermittelt. Hierbei wurde im partikelfreien Überstand der gelagerten Lösungen mittels HPLC ein Gehalt von 95,1 mg/ml Gemcitabin bzw. 108,3 mg/ml Gemcitabinhydrochlorid bestimmt.

[3] = cited from earlier work

solubility thermodynamic ([1]; 66 vol% aqueous ethanol, pH 10, organic solvent or mixture, read-out: Maximum der Gemcitabin-Löslichkeit) [mg/mL]	solubility at 24 h ([2]; 66 vol% aqueous ethanol, organic solvent or mixture, read-out: maximale Löslichkeit (Gehalt im partikelfreien Überstand)) [mg/mL]	Maximum der Gemcitabin-Löslichkeit [1] [mg/mL]	maximale Löslichkeit (Gehalt im partikelfreien Überstand) ([2]; 1440 min)	SMILES	Löslichkeit des Gemcitabins in Wasser ([3]; pH-Bereich von 2,7 bis 3,3)	Löslichkeit des Gemcitabins in Wasser ([3]; pH-Wert von 5)	Löslichkeit des Gemcitabins in Wasser ([3]; pH-Wert von 7)	Löslichkeit des Gemcitabins in Wasser ([3]; pH-Wert von 9)
50 (≈ 190 mM)	95.1 (≈ 361 mM)			Nc1ccn([C@@H]2O[C@H](CO)[C@@H](O)C2(F)F)c(=O)n1 [Gemcitabin, 2'-Deoxy-2',2'-difluorcytidin]	ca. 38 mg/ml	16,0 mg/ml	15,3 mg/ml	15,8 mg/ml
		55	108,3 mg/ml	Nc1ccn([C@@H]2O[C@H](CO)[C@@H](O)C2(F)F)c(=O)n1 [Gemcitabinhydrochlorid]				
